Our source for the IC50 values is patent publication US20250179032A1, “HETEROCYCLIC INHIBITORS OF GLUT9 FOR TREATMENT OF DISEASE” (HORIZON THERAPEUTICS IRELAND DAC, priority 2022, published 2025).

The first assay deals with T1, H. sapiens SLC2A9 variant 2 (GLUT9B) (Homo sapiens, UniProt Q9NRM0).
T1 sequence (Q9NRM0 1-511 isoform Q9NRM0-2): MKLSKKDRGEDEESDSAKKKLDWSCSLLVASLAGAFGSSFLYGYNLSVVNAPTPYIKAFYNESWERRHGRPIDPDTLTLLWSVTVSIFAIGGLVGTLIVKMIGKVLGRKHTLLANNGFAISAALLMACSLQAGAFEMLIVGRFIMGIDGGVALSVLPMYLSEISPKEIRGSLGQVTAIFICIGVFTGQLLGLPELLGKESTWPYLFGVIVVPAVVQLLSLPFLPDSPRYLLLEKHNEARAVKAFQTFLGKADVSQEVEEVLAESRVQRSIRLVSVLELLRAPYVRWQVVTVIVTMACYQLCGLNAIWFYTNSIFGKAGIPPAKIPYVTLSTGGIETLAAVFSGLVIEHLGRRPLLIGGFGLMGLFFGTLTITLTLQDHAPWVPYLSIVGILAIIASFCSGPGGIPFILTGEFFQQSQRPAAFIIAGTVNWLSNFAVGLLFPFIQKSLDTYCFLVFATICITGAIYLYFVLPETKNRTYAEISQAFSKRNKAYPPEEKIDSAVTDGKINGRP
Kind of assay: GLUT9 functional assay: uric acid uptake in HEK293T cells, allantoin formation by MS/MS as proxy of GLUT9B inhibition. Type of assay: cell-based. To be noted: 15 minute assay; HEK293T cells stably expressing GLUT9B and transiently A. oryzae uricase; uric acid 0.3 mM, 37° C.; read-out: 15 min IC50. In a few lines: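 Inhibition of GLUT9B-mediated urate uptake read as reduced allantoin formation, measured by MS/MS against allantoin standards in HEK293T matrix with log-logistic fitting. Stable GLUT9B HEK293T cells carrying transfected A. oryzae uricase were incubated 15 or 60 min at 37° C with uric acid at Km (0.3 mM), pH 7.4 gluconate buffer.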
The IC50 is the concentration at which inhibition is half-maximal. As for `O=C(O)C1CCN(c2nc(CCCC(F)F)cnc2-c2ccc3c(c2)CCO3)CC1` [Compound 143, 1-(6-(4,4-difluorobutyl)-3-(2,3-dihydrobenzofuran-5-yl)pyrazin-2-yl)piperidine-4-carboxylic acid], the IC50 is less than 500 nM.

Turning to `O=C(O)C1CCN(c2nc(CCCC(F)F)cnc2-c2ccc3c(c2)OCO3)CC1` [Compound 144, 1-(3-(benzo[d][1,3]dioxol-5-yl)-6-(4,4-difluorobutyl)pyrazin-2-yl)piperidine-4-carboxylic acid], the IC50 was less than 500 nM.

`COCCOc1ccc(-c2ncc(CCCC(F)F)nc2N2CCC(C(=O)O)CC2)cc1` [Compound 145, 1-(6-(4,4-difluorobutyl)-3-(4-(2-methoxyethoxy)phenyl)pyrazin-2-yl)piperidine-4-carboxylic acid]: the IC50 is less than 500 nM.

Take `O=c1[nH]c(C2CCN(c3nc(CCC(F)(F)F)cnc3-c3cc(F)c4occc4c3)CC2)no1` [Compound 146, 3-(1-(3-(7-fluorobenzofuran-5-yl)-6-(3,3,3-trifluoropropyl)pyrazin-2-yl)piperidin-4-yl)-1,2,4-oxadiazol-5(4H)-one]: the IC50 was less than 500 nM.

Take `CCCCCc1cnc(-c2cc(F)c3occc3c2)c(N2CCC(C(=O)O)CC2)n1` [Compound 147, 1-(3-(7-fluorobenzofuran-5-yl)-6-pentylpyrazin-2-yl)piperidine-4-carboxylic acid]: the IC50 was less than 500 nM.

With `CCC(F)(F)Cc1cnc(-c2ccc(OCCOC)cc2)c(N2CCC(C(=O)O)CC2)n1` [Compound 148, 1-(6-(2,2-difluorobutyl)-3-(4-(2-methoxyethoxy)phenyl)pyrazin-2-yl)piperidine-4-carboxylic acid], the IC50 was greater than 2000 nM.

Turning to `CCC(F)(F)Cc1cnc(-c2ccc3occc3c2)c(N2CCC(C(=O)O)CC2)n1` [Compound 149, 1-(3-(benzofuran-5-yl)-6-(2,2-difluorobutyl)pyrazin-2-yl)piperidine-4-carboxylic acid], the IC50 is less than 500 nM.

On to `CCC(F)(F)Cc1cnc(-c2ccc(OCC3CC3)cc2)c(N2CCC(C(=O)O)CC2)n1` [Compound 150, 1-(3-(4-(cyclopropylmethoxy)phenyl)-6-(2,2-difluorobutyl)pyrazin-2-yl)piperidine-4-carboxylic acid], for which the IC50 was 500 to 2000 nM.

On to `O=C(O)C1CCN(c2nc(CCCOC(F)(F)F)cnc2-c2ccc3occc3c2)CC1` [Compound 151, 1-(3-(benzofuran-5-yl)-6-(3-(trifluoromethoxy)propyl)pyrazin-2-yl)piperidine-4-carboxylic acid], for which the IC50 was less than 500 nM.

As to `O=C(O)C1CCN(c2nc(CCC(F)(F)F)cnc2-c2ccc(OCC3CC3)cc2)CC1` [Compound 152, 1-(3-(4-(cyclopropylmethoxy)phenyl)-6-(3,3,3-trifluoropropyl)pyrazin-2-yl)piperidine-4-carboxylic acid], the IC50 was less than 500 nM.

`O=C(O)C1CCN(c2nc(CCCCC(F)(F)F)cnc2-c2ccc(OCC3CC3)cc2)CC1` [Compound 153, 1-(3-(4-(cyclopropylmethoxy)phenyl)-6-(5,5,5-trifluoropentyl)pyrazin-2-yl)piperidine-4-carboxylic acid]: the IC50 was less than 500 nM.

For `O=C(O)C1CCN(c2nc(CCC(F)(F)C(F)(F)F)cnc2-c2ccc(OCC3CC3)cc2)CC1` [Compound 154, 1-(3-(4-(cyclopropylmethoxy)phenyl)-6-(3,3,4,4,4-pentafluorobutyl)pyrazin-2-yl)piperidine-4-carboxylic acid], the IC50 was 500 to 2000 nM.

`COCCOc1ccc(-c2ncc(CC(COC)COC)nc2N2CCC(C(=O)O)CC2)cc1` [Compound 155, 1-(6-(3-methoxy-2-(methoxymethyl)propyl)-3-(4-(2-methoxyethoxy)phenyl)pyrazin-2-yl)piperidine-4-carboxylic acid]: the IC50 is greater than 2000 nM.

As to `COCC(COC)Cc1cnc(-c2ccc(OCC3CC3)cc2)c(N2CCC(C(=O)O)CC2)n1` [Compound 156, 1-(3-(4-(cyclopropylmethoxy)phenyl)-6-(3-methoxy-2-(methoxymethyl)propyl)pyrazin-2-yl)piperidine-4-carboxylic acid], the IC50 was greater than 2000 nM.

Take `O=C(O)C1CCN(c2nc(CCCC(F)(F)F)cnc2-c2ccc(OC(F)(F)F)cc2)CC1` [Compound 157, 1-(6-(4,4,4-trifluorobutyl)-3-(4-(trifluoromethoxy)phenyl)pyrazin-2-yl)piperidine-4-carboxylic acid]: the IC50 was less than 500 nM.

Turning to `O=C(O)C1CCN(c2nc(CCCC(F)(F)F)cnc2-c2ccc(C(F)(F)F)cc2)CC1` [Compound 158, 1-(6-(4,4,4-trifluorobutyl)-3-(4-(trifluoromethyl)phenyl)pyrazin-2-yl)piperidine-4-carboxylic acid], the concentration for half-maximal inhibition (IC50) was in the range of 500 to 2000 nM.

As to `O=C(O)C1CCN(c2nc(CCCC(F)(F)F)cnc2-c2ccc(OC(F)F)cc2)CC1` [Compound 159, 1-(3-(4-(difluoromethoxy)phenyl)-6-(4,4,4-trifluorobutyl)pyrazin-2-yl)piperidine-4-carboxylic acid], the IC50 lay in the range of 500 to 2000 nM.

For the compound `O=C(O)C1CCN(c2nc(CCCC(F)(F)F)cnc2-c2ccc3c(c2)OC(F)(F)O3)CC1` [Compound 160, 1-(3-(2,2-difluorobenzo[d][1,3]dioxol-5-yl)-6-(4,4,4-trifluorobutyl)pyrazin-2-yl)piperidine-4-carboxylic acid], the IC50 fell in the range of 500 to 2000 nM.

With `O=C(O)C1CCN(c2nc(CCC(F)(F)F)cnc2-c2ccc(OC(F)(F)F)cc2)CC1` [Compound 161, 1-(3-(4-(trifluoromethoxy)phenyl)-6-(3,3,3-trifluoropropyl)pyrazin-2-yl)piperidine-4-carboxylic acid], the IC50 was in the range of 500 to 2000 nM.

On to `O=C(O)C1CCN(c2nc(CCC(F)(F)F)cnc2-c2ccc(C(F)(F)F)cc2)CC1` [Compound 162, 1-(3-(4-(trifluoromethyl)phenyl)-6-(3,3,3-trifluoropropyl)pyrazin-2-yl)piperidine-4-carboxylic acid], for which the IC50 was 500 to 2000 nM.

For `O=C(O)C1CCN(c2nc(CCC(F)(F)F)cnc2-c2ccc(OC(F)F)cc2)CC1` [Compound 163, 1-(3-(4-(difluoromethoxy)phenyl)-6-(3,3,3-trifluoropropyl)pyrazin-2-yl)piperidine-4-carboxylic acid], the IC50 lay within 500 to 2000 nM.

Consider `O=C(O)C1CCN(c2nc(CCC(F)(F)F)cnc2-c2ccc3c(c2)OC(F)(F)O3)CC1` [Compound 164, 1-(3-(2,2-difluorobenzo[d][1,3]dioxol-5-yl)-6-(3,3,3-trifluoropropyl)pyrazin-2-yl)piperidine-4-carboxylic acid], for which the IC50 is 500 to 2000 nM.

Turning to `O=C(O)C1(O)CCN(c2nc(CCCC(F)(F)F)cnc2-c2cc(F)c3occc3c2)CC1` [Compound 165, 1-(3-(7-fluorobenzofuran-5-yl)-6-(4,4,4-trifluorobutyl)pyrazin-2-yl)-4-hydroxypiperidine-4-carboxylic acid], the IC50 is less than 500 nM.

Take `O=C(O)C1(O)CCN(c2nc(CCCC(F)(F)F)cnc2-c2ccc3c(c2)OCO3)CC1` [Compound 166, 1-(3-(benzo[d][1,3]dioxol-5-yl)-6-(4,4,4-trifluorobutyl)pyrazin-2-yl)-4-hydroxypiperidine-4-carboxylic acid]: the IC50 was in the range of 500 to 2000 nM.

As for `COCCOc1ccc(-c2ncc(CCCC(F)(F)F)nc2N2CCC(O)(C(=O)O)CC2)cc1` [Compound 167, 4-hydroxy-1-(3-(4-(2-methoxyethoxy)phenyl)-6-(4,4,4-trifluorobutyl)pyrazin-2-yl)piperidine-4-carboxylic acid], the IC50 was greater than 2000 nM.

Turning to `COCCCc1cnc(-c2cc(F)c3occc3c2)c(N2CCC(C(=O)O)CC2)c1` [Compound 168, 1-(2-(7-Fluorobenzofuran-5-yl)-5-(3-Methoxypropyl)Pyridin-3-yl)piperidine-4-carboxylic acid], the 50% inhibitory concentration (IC50) was less than 500 nM.

In the case of `COCCCc1cnc(-c2cc(F)c3c(c2)OCO3)c(N2CCC(C(=O)O)CC2)c1` [Compound 169, 1-(2-(7-fluorobenzo[d][1,3]dioxol-5-yl)-5-(3-methoxypropyl)pyridin-3-yl)piperidine-4-carboxylic acid], the IC50 is less than 500 nM.

Regarding `COCCCc1cnc(-c2cnc3occc3c2)c(N2CCC(C(=O)O)CC2)c1` [Compound 170, 1-(2-(Furo[2,3-b]Pyridin-5-yl)-5-(3-Methoxypropyl)Pyridin-3-yl)piperidine-4-carboxylic acid], the IC50 lay within 500 to 2000 nM.

Turning to `COCCCc1cnc(-c2ccc3c(c2)OCO3)c(N2CCC(O)(C(=O)O)CC2)n1` [Compound 171, 1-(3-(benzo[d][1,3]dioxol-5-yl)-6-(3-methoxypropyl)pyrazin-2-yl)-4-hydroxypiperidine-4-carboxylic acid], the IC50 is greater than 2000 nM.

As for `COCCCc1cnc(-c2ccc3occc3c2)c(N2CCC(C(=O)O)CC2)n1` [Compound 172, 1-(3-(benzofuran-5-yl)-6-(3-Methoxypropyl)Pyrazin-2-yl)Piperidine-4-carboxylic acid], the IC50 was less than 500 nM.

Staying with this assay, now noted: 60 minute assay; HEK293T cells stably expressing GLUT9B and transiently A. oryzae uricase; uric acid 0.3 mM, 37° C.; read-out: 60 min IC50.
Take `CCC(F)(F)Cc1cnc(-c2ccc(OCC3CC3)cc2)c(N2CCC(C(=O)O)CC2)n1` [Compound 150, 1-(3-(4-(cyclopropylmethoxy)phenyl)-6-(2,2-difluorobutyl)pyrazin-2-yl)piperidine-4-carboxylic acid]: the IC50 is greater than 2000 nM.

`COCCCc1cnc(-c2cc(F)c3occc3c2)c(N2CCC(C(=O)O)CC2)c1` [Compound 168, 1-(2-(7-Fluorobenzofuran-5-yl)-5-(3-Methoxypropyl)Pyridin-3-yl)piperidine-4-carboxylic acid]: the IC50 is less than 500 nM.

Regarding `COCCCc1cnc(-c2cnc3occc3c2)c(N2CCC(C(=O)O)CC2)c1` [Compound 170, 1-(2-(Furo[2,3-b]Pyridin-5-yl)-5-(3-Methoxypropyl)Pyridin-3-yl)piperidine-4-carboxylic acid], the IC50 is greater than 2000 nM.

Regarding `COCCCc1cnc(-c2ccc3occc3c2)c(N2CCC(C(=O)O)CC2)n1` [Compound 172, 1-(3-(benzofuran-5-yl)-6-(3-Methoxypropyl)Pyrazin-2-yl)Piperidine-4-carboxylic acid], the IC50 is less than 500 nM.
